Measured values as given in PubChem BioAssay AID330 (DTP/NCI, 2004).
Where “and” joins values, the source holds several entries; their conditions need not be identical. Identical values can stand only once. Toxic doses and inconclusive results are not listed.

Test system: P388 leukemia ip, CD2F1 mice, survival T/C
Assay: NCI In Vivo Anticancer Drug Screen. Data for tumor model P388 Leukemia (intraperitoneal) in CD2F1 (CDF1) mice
Conditions: endpoint: median survival time, higher = longer survival
In short: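 Mice carrying the transplanted tumor received test compound or vehicle. Survival was recorded in each group, and the value is the treated-group measurement divided by that of the vehicle-treated control group.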

[1] = dose: 100.0 mg/kg/injection, schedule: Q04DX002 (ip), vehicle: saline with Tween-80
[2] = dose: 200.0 mg/kg/injection, schedule: Q04DX002 (ip), vehicle: saline with Tween-80
[3] = dose: 25.0 mg/kg/injection, schedule: Q01DX009 (ip), vehicle: Klucel (hydroxypropylcellulose) (HPC)
[4] = dose: 50.0 mg/kg/injection, schedule: Q01DX009 (ip), vehicle: Klucel (hydroxypropylcellulose) (HPC)
[5] = dose: 100.0 mg/kg/injection, schedule: Q01DX009 (ip), vehicle: Klucel (hydroxypropylcellulose) (HPC)
[6] = dose: 200.0 mg/kg/injection, schedule: Q01DX009 (ip), vehicle: Klucel (hydroxypropylcellulose) (HPC)
[7] = dose: 25.0 mg/kg/injection, schedule: Q01DX005 (ip), vehicle: Klucel (hydroxypropylcellulose) (HPC)
[8] = dose: 50.0 mg/kg/injection, schedule: Q01DX009 (ip), vehicle: saline with Tween-80
[9] = dose: 100.0 mg/kg/injection, schedule: Q01DX009 (ip), vehicle: saline with Tween-80
[10] = dose: 200.0 mg/kg/injection, schedule: Q01DX009 (ip), vehicle: saline with Tween-80
[11] = dose: 12.5 mg/kg/injection, schedule: Q01DX009 (ip), vehicle: Klucel (hydroxypropylcellulose) (HPC)

In the case of `CCOC(=O)C1(Br)CC2(C1)CC(Br)(C(=O)OCC)C2` (stereo not drawn), the T/C [1] is reported as 101 % of control, the T/C [2] is reported as 103 % of control and the T/C (dose: 400.0 mg/kg/injection, schedule: Q04DX002 (ip), vehicle: saline with Tween-80) is reported as 100 % of control.

With `Nc1ccccc1-c1nc2ccncc2[nH]1` the T/C [3] was 102 % of control, the T/C [4] was 105 % of control and the T/C [5] was 101 % of control. The T/C [6] was 100 % of control.

With `CN1CCN(c2ccncc2S(=O)(=O)N2CCOCC2)CC1` the T/C (dose: 50.0 mg/kg/injection, schedule: Q01DX009 (ip), vehicle: saline) was 97 % of control and the T/C (dose: 100.0 mg/kg/injection, schedule: Q01DX009 (ip), vehicle: saline) was 95 % of control.

`CCCCCCC(O)CCCCCCCCCCC(N)=O` (stereo not drawn) was tested, and the T/C (dose: 6.25 mg/kg/injection, schedule: Q01DX005 (ip), vehicle: Klucel (hydroxypropylcellulose) (HPC)) was 99 % of control, the T/C (dose: 12.5 mg/kg/injection, schedule: Q01DX005 (ip), vehicle: Klucel (hydroxypropylcellulose) (HPC)) was 96 % of control and the T/C [7] was 94 % of control.

With `N#C/C(=C\Nc1ccccn1)C(=O)c1ccccc1` the T/C (dose: 60.0 mg/kg/injection, schedule: Q01DX005 (ip), vehicle: saline with Tween-80) was 91 % of control, the T/C (dose: 120.0 mg/kg/injection, schedule: Q01DX005 (ip), vehicle: saline with Tween-80) was 91 % of control and the T/C (dose: 240.0 mg/kg/injection, schedule: Q01DX005 (ip), vehicle: saline with Tween-80) was 91 % of control.

For `CC1CCC2(CC1)CC(=O)N(N1CCOCC1)C(=O)C2`, the T/C (dose: 60.0 mg/kg/injection, schedule: Q01DX005 (ip), vehicle: suspension in saline) was 99 % of control, the T/C (dose: 120.0 mg/kg/injection, schedule: Q01DX005 (ip), vehicle: suspension in saline) was 99 % of control and the T/C (dose: 240.0 mg/kg/injection, schedule: Q01DX005 (ip), vehicle: suspension in saline) was 102 % of control.

For `Clc1c2c(c(Cl)c3c1=Nc1ncccc1O3)=Nc1ncccc1O2`, the T/C [8] was 100 % of control, the T/C [9] was 96 % of control and the T/C [10] was 99 % of control.

`C=CCCCn1nc(-c2ccccc2)c(-c2ccccc2)n1` was tested, and the T/C [8] was 106 % of control, the T/C [9] was 100 % of control and the T/C [10] was 103 % of control.

With `CNC1CC(C)(O)Cc2cc3c(c(O)c21)C(=O)c1c(O)cc2c(c1C3=O)OC1OC2(C)C(O)C(N(C)C)C1O` (stereo not drawn) the T/C (dose: 12.5 mg/kg/injection, schedule: Q01DX009 (ip), vehicle: other) was 153 % of control and the T/C (dose: 25.0 mg/kg/injection, schedule: Q01DX009 (ip), vehicle: other) was 158 % of control.

With `O=C(O)CCC(=O)NC1C(NNC(=O)c2cccnc2)OC(CO)C(O)C1O` (stereo not drawn) the T/C (dose: 50.0 mg/kg/injection, schedule: Q01DX005 (ip), vehicle: saline with Tween-80) was 101 % of control, the T/C (dose: 100.0 mg/kg/injection, schedule: Q01DX005 (ip), vehicle: saline with Tween-80) was 95 % of control and the T/C (dose: 200.0 mg/kg/injection, schedule: Q01DX005 (ip), vehicle: saline with Tween-80) was 101 % of control.

With `C=C1C(=O)O[C@@H]2[C@H]1CC[C@H](C)[C@]1(O)CCC(=O)[C@@]21C` the T/C [11] was 112 % of control, the T/C [3] was 114 % of control and the T/C (dose: 44.0 mg/kg/injection, schedule: Q01DX009 (ip), vehicle: Klucel (hydroxypropylcellulose) (HPC)) was 115 % of control. For the same molecule, the T/C [4] was 117 % of control, the T/C (dose: 67.0 mg/kg/injection, schedule: Q01DX009 (ip), vehicle: Klucel (hydroxypropylcellulose) (HPC)) was 117 % of control and the T/C [5] was 117 % of control. For the same molecule, the T/C (dose: 150.0 mg/kg/injection, schedule: Q01DX009 (ip), vehicle: Klucel (hydroxypropylcellulose) (HPC)) was 122 % of control.

For `CC1(Cl)C(c2ccccc2)=[N+]([O-])[N+]([O-])=C1c1ccccc1`, the T/C [1] was 112 % of control and the T/C [2] was 112 % of control.

With `CC[C@@H](C)[C@@H]1NC(=O)C(NC(=O)C(CC(C)C)N(C)C(=O)C2CCCN2C(=O)C(C)O)C(C)OC(=O)C(Cc2ccc(OC)cc2)N(C)C(=O)C2CCCN2C(=O)C(CC(C)C)NC(=O)C(C)C(=O)C(C(C)C)OC(=O)C[C@H]1O` (stereo partly drawn) the T/C (dose: 0.03 mg/kg/injection, schedule: Q01DX009 (ip), vehicle: none) was 171 % of control, the T/C (dose: 10.0 micrograms/kg/injection, schedule: Q01DX009 (ip), vehicle: distilled water + alcohol) was 112 % of control and the T/C (dose: 20.0 micrograms/kg/injection, schedule: Q01DX009 (ip), vehicle: distilled water + alcohol) was 112 % of control. The T/C (dose: 80.0 micrograms/kg/injection, schedule: Q01DX009 (ip), vehicle: distilled water + alcohol) was 155 % of control.

In the case of `CNCCN=c1ccc2c3c1c(O)c1c(O)ccc(=O)c1c3[nH]n2CCNCCO`, the T/C (dose: 1.56 mg/kg/injection, schedule: Q04DX002 (ip), vehicle: water) is reported as 167 % of control and 186 % of control, the T/C (dose: 3.12 mg/kg/injection, schedule: Q04DX002 (ip), vehicle: water) is reported as 177 % of control and 268 % of control and the T/C (dose: 6.25 mg/kg/injection, schedule: Q04DX002 (ip), vehicle: water) is reported as 275 % of control and 277 % of control. For the same molecule, the T/C (dose: 12.5 mg/kg/injection, schedule: Q04DX002 (ip), vehicle: water) was 275 % of control and 277 % of control and the T/C (dose: 25.0 mg/kg/injection, schedule: Q04DX002 (ip), vehicle: water) was 90 % of control.

For `CC(C)(C)B1N(c2ccccc2)N=NN1C(C)(C)C`, the T/C (dose: 60.0 mg/kg/injection, schedule: Q01DX005 (ip), vehicle: saline) was 100 % of control, the T/C (dose: 120.0 mg/kg/injection, schedule: Q01DX005 (ip), vehicle: saline) was 99 % of control and 88 % of control and the T/C (dose: 240.0 mg/kg/injection, schedule: Q01DX005 (ip), vehicle: saline) was 96 % of control and 98 % of control.

`CN(C)c1ccc2c(SCC(=O)OCC(=O)[C@@]3(O)CC[C@H]4[C@@H]5CCC6=CC(=O)C=C[C@]6(C)[C@H]5C(=O)C[C@@]43C)c3ccc(N(C)C)cc3nc2c1` was tested, and the T/C [7] was 113 % of control.

For `c1ccc(CN2CC[N+](Cc3ccccc3)=C2C2=[N+](Cc3ccccc3)CCN2Cc2ccccc2)cc1`, the T/C (dose: 12.5 mg/kg/injection, schedule: Q01DX009 (ip), vehicle: suspension in saline) was 89 % of control, the T/C (dose: 25.0 mg/kg/injection, schedule: Q01DX009 (ip), vehicle: suspension in saline) was 96 % of control and the T/C (dose: 50.0 mg/kg/injection, schedule: Q01DX009 (ip), vehicle: suspension in saline) was 91 % of control.

For `Cc1ccc(NC2=NCCS2)cc1Cl`, the T/C [4] was 110 % of control, the T/C [5] was 115 % of control and the T/C [6] was 89 % of control.

`CCC/C=C/C=C/C(=O)OC1/C(=C/C(=O)OC)CC2CC(C(C)O)OC(=O)CC(O)CC3CC(OC(C)=O)C(C)(C)C(O)(CC4C/C(=C/C(=O)OC)CC(/C=C/C(C)(C)C1(O)O2)O4)O3` (stereo not drawn) was tested, and the T/C (dose: 0.01 mg/kg/injection, schedule: Q01DX009 (ip), vehicle: saline + alcohol) was 152 % of control, the T/C (dose: 0.03 mg/kg/injection, schedule: Q01DX009 (ip), vehicle: saline + alcohol) was 186 % of control and the T/C (dose: 0.07 mg/kg/injection, schedule: Q01DX009 (ip), vehicle: saline + alcohol) was 163 % of control and 196 % of control. The T/C (dose: 0.15 mg/kg/injection, schedule: Q01DX009 (ip), vehicle: saline + alcohol) was 179 % of control, the T/C (dose: 18.75 micrograms/kg/injection, schedule: Q01DX009 (ip), vehicle: saline + alcohol) was 175 % of control and the T/C (dose: 37.5 micrograms/kg/injection, schedule: Q01DX009 (ip), vehicle: saline + alcohol) was 177 % of control. For the same molecule, the T/C (dose: 75.0 micrograms/kg/injection, schedule: Q01DX009 (ip), vehicle: saline + alcohol) was 177 % of control.

`CCOC(=O)c1cn(C)c2c1C(O)=C(C(=O)OC)CC(=O)N2` was tested, and the T/C (dose: 100.0 mg/kg/injection, schedule: Q04DX003 (ip), vehicle: saline with Tween-80) was 95 % of control, the T/C (dose: 200.0 mg/kg/injection, schedule: Q04DX003 (ip), vehicle: saline with Tween-80) was 100 % of control and the T/C (dose: 400.0 mg/kg/injection, schedule: Q04DX003 (ip), vehicle: saline with Tween-80) was 117 % of control.

For `O=C(Oc1ccc(Cl)cc1Cl)c1ccc([N+](=O)[O-])cc1`, the T/C [5] was 96 % of control, the T/C [6] was 87 % of control and the T/C (dose: 400.0 mg/kg/injection, schedule: Q01DX009 (ip), vehicle: Klucel (hydroxypropylcellulose) (HPC)) was 96 % of control.

With `CCn1c2ccccc2c2cc(N=Nc3ccc4c(c3)c3ccccc3n4CC)ccc21` the T/C [8] was 105 % of control and the T/C [9] was 113 % of control.

`COc1ccc2nc3cc(Cl)ccc3c(NCCCCN3CCCC3)c2n1` was tested, and the T/C (dose: 12.5 mg/kg/injection, schedule: Q01DX009 (ip), vehicle: water) was 101 % of control and the T/C (dose: 25.0 mg/kg/injection, schedule: Q01DX009 (ip), vehicle: water) was 105 % of control.

With `CCN(CC)Sc1cccc([N+](=O)[O-])c1` the T/C [11] was 108 % of control, the T/C [3] was 118 % of control and the T/C [4] was 113 % of control and 119 % of control.

`CC1(C)CN(C2CCCCC2)CN2C1OCC2(C)C` (stereo not drawn) was tested, and the T/C (dose: 80.0 mg/kg/injection, schedule: Q01DX009 (ip), vehicle: saline with Tween-80) was 117 % of control.
